The numbers were not newly measured in paper PMC10615786 (Cell, 2023), which cites them from elsewhere.

For series [1], the system named is ROS level. To be noted: general statement, no data or reference printed.
The subject of series [2] is LRX4. To be noted: modulates salt tolerance.
For series [3], the system named is LRX3. The conditions noted are these: modulates salt tolerance.

For the compound `c1ccc2c(c1)[I+]c1ccccc1-2` [DPI], the “ROS levels in vivo” value in series [1] is “lower ROS levels in vivo”.
For the compound “sRALF23: stigma-expressing RALF peptide (ATRRYISYGALRRNTIPCSRRGASYYNCRRGAQANPYSRGCSAITRCRRS; UniProt Q9LUS7 89-138, looked up)”, the “binding to LRX4” value in series [2] was “bind to LRX3 and LRX4”. Further, the “binding to LRX3” value in series [3] is “bind to LRX3 and LRX4”.
